Measured values as given in patent US8664217B2, “Benzodiazepine compound and pharmaceutical composition” (Otsuka Pharmaceutical Co., Ltd., priority 2008, dated 2014).
Where a name gives a salt, the structure may show the parent alone.

Target: T1, human Kv1.5 channels (Homo sapiens, UniProt P22460)
T1 construct: Full-length human Kv1.5 cDNA was cloned from a human heart cDNA library; expressed in transfected cells; host or cells: CHO-K1
Experiment: Measurement of human Kv1.5 channel current by whole-cell patch clamp method (human Kv1.5-expressing CHO-K1 cell line)
Assay type: cell-based
Settings: human Kv1.5-expressing CHO-K1 cells, step end current at +40 mV, test compound 0.1, 1, 10 μM
Method: Pharmacological Test 1 (1) Production of Human Kv1.5-Expressing CHO-K1 Cell Lines
CHO-K1 cell lines stably expressing human Kv1.5 channels were prepared in the following manner.
Full-length human Kv1.5 cDNA was cloned from a human heart cDNA library (produced by Stratagene). The obtained human Kv1.5 sequence corresponds to the sequence described in FASEB J. 5, 331-337 (1991).
The obtained human Kv1.5 cDNA was inserted into a plasmid encoding a CMV promoter and a G418 resistance marker to produce a Kv1.5 expression vector. The human Kv1.5 expression vector was transfected into CHO-K1 cells by the lipofectamine method. After culturing the cells in an F-12 medium (produced by Invitrogen Corp.) containing 10% FBS (produced by Invitrogen Corp.) for 3 or 4 days, the medium was replaced with a FBS-containing F-12 medium that included 1,000 μg/ml of G418 (produced by Invitrogen Corp.), and single colonies were isolated. The amount of Kv1.5 channel expression in the single colonies was quantified at the mRNA level by RT-PCR and then quantified at the protein level by western blotting. Finally, the expressed current was analyzed by patch clamp method. Cell lines expressing a current of 200 pA or more per cell were selected as channel-expressing cell lines for activity measurement by patch clamp method.
(3) Measurement of Ion Channel Current by Patch Clamp Method (Human Kv1.5-Expressing CHO-K1 Cell Line)
An experiment was carried out using a patch clamp setup at room temperature (20 to 26° C.). A perfusion chamber having a diameter of 20 mm (flow rate: about 5 ml/min) was mounted on the stage of a phase-contrast inverted microscope (produced by Nikon Corporation) placed on a vibration isolated table. A poly-L-lysine (produced by Sigma)-coated coverslip (diameter: 15 mm, produced by Matsunami Glass Ind., Ltd.) on which human Kv1.5-expressing cells were cultured was placed in the perfusion chamber.
Depolarizing stimulation pulses were applied and ionic current was recorded by using a patch clamp amplifier (EPC-7 or EPC-7 PLUS, produced by HEKA) and a personal computer (manufactured by IBM Corp.) in which software for data acquisition and analysis of ion channel current (PULSE 8.77, produced by HEKA) was installed. The current was measured in the whole-cell configuration of the patch-clamp technique. The tip (resistance: 2 to 4 MΩ) of a borosilicate glass pipette (produced by Sutter Instrument Co.) was gently placed on the cell membrane by using a three-dimensional mechanical micromanipulator (produced by Shoshin EM Corporation). […] Subsequently, stronger suction was applied to break the cell membrane. The capacitative current derived from the cell membrane was corrected using a patch clamp amplifier. Subsequently, the series resistance (Rs) between the pipette and the interior of the cell was measured and corrected.
The composition of the extracellular solution used is shown below. Unless otherwise specified, these components were obtained from Wako Pure Chemical Industries, Ltd.
Each test compound was prepared as a 1000-fold concentrated stock solution that was dissolved in DMSO and then diluted in the extracellular solution.
The composition of the electrode internal solution used is shown below. Unless otherwise specified, these components were obtained from Wako Pure Chemical Industries, Ltd.
(5) Measurement of Human Kv1.5 Current
While the membrane potential was bolded at −80 mV, depolarizing pulses (−80 mV for 0.05 seconds→+40 mV for 0.2 seconds →−40 mV for 0.2 seconds→−80 mV for 0.05 seconds) were applied at a stimulation frequency of 1 Hz to measure Kv1.5 channel current. More specifically, first, while perfusing an extracellular solution containing 0.1% DMSO and holding the membrane potential at −80 mV, depolarizing pulses were applied. The current obtained during the pulse application was recorded as a current in the absence of the test compounds. […]

T1 sequence (P22460 whole entry): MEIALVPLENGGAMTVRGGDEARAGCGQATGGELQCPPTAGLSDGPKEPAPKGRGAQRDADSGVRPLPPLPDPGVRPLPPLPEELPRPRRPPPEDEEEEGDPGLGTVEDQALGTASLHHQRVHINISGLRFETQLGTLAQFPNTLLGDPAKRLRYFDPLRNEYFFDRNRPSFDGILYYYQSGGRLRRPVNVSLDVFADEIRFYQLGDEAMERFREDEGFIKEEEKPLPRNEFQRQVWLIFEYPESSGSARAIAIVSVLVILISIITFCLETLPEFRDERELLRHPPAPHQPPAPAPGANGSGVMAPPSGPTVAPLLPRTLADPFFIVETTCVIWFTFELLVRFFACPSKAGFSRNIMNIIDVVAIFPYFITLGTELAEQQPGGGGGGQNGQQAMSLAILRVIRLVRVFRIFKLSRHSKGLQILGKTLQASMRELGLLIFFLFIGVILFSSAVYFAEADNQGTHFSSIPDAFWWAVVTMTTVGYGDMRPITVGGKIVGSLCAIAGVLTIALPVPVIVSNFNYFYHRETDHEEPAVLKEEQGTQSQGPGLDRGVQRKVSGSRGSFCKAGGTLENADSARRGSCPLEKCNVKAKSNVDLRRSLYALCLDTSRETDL

SMILES | IC50 [µM]
CCN1C(=O)C(C)(C)C(=O)N(C)c2cc(OCCCN(CCc3cccnc3)Cc3ccncc3)ccc21 [Example 8, 1-ethyl-3,3,5-trimethyl-7-{3-[(2-pyridin-3-ylethyl)pyridin-4-ylmethylamino]propoxy}-1,5-dihydrobenzo[b][1,4]diazepine-2,4-dione trihydrochloride] | 0.4
CCCN1C(=O)C(C)(C)C(=O)N(C)c2cc(OCCCN(CCc3cccnc3)Cc3ccncc3)ccc21 [Example 10, 3,3,5-trimethyl-1-propyl-7-{3-[(2-pyridin-3-ylethyl)pyridin-4-ylmethylamino]propoxy}-1,5-dihydrobenzo[b][1,4]diazepine-2,4-dione trihydrochloride] | 0.58
CCN1C(=O)C(C)(C)C(=O)N(CC)c2cc(OCCCN(CCc3cccnc3)Cc3ccncc3)ccc21 [Example 14, 1,5-diethyl-3,3-dimethyl-7-{3-[(2-pyridin-3-ylethyl)pyridin-4-ylmethylamino]propoxy}-1,5-dihydrobenzo[b][1,4]diazepine-2,4-dione trihydrochloride] | 0.58
CN1C(=O)C(C)(C)C(=O)N(C)c2cc(OCCCN(CCc3cccnc3)Cc3ccncc3)ccc21 [Example 19, 1,3,3,5-tetramethyl-7-{3-[(2-pyridin-3-ylethyl)pyridin-4-ylmethylamino]propoxy}-1,5-dihydrobenzo[b][1,4]diazepine-2,4-dione trihydrochloride] | 0.54
CCN1C(=O)C(C)(C)C(=O)N(C)c2cc(OCCCN(CCn3ccc4ccccc4c3=O)Cc3ccncc3)ccc21 [Example 23, 1-ethyl-3,3,5-trimethyl-7-(3-{[2-(1-oxo-1H-isoquinolin-2-yl)ethyl]pyridin-4-ylmethylamino}propoxy)-1,5-dihydrobenzo[b][1,4]diazepine-2,4-dione dihydrochloride] | 0.18
CCN1C(=O)C(C)(C)C(=O)N(C)c2cc(OCCCN(CCn3ccc4ccoc4c3=O)Cc3ccncc3)ccc21 [Example 31, 1-ethyl-3,3,5-trimethyl-7-(3-{[2-(7-oxo-7H-furo[2,3-c]pyridin-6-yl)ethyl]pyridin-4-ylmethylamino}propoxy)-1,5-dihydrobenzo[b][1,4]diazepine-2,4-dione dihydrochloride] | 1.3
CN(CCN(CCCOc1ccc2c(c1)N(C)C(=O)C(C)(C)C(=O)N2C)Cc1ccncc1)C(=O)c1ccccc1 [Example 45, N-methyl-N-(2-{pyridin-4-ylmethyl-[3-(1,3,3,5-tetramethyl-2,4-dioxo-2,3,4,5-tetrahydro-1H-benzo[b][1,4]diazepin-7-yloxy)propyl]amino}ethyl)benzamide dihydrochloride] | 0.69
Cc1ccccc1CN(CCCOc1ccc2c(c1)N(C)C(=O)C(C)(C)C(=O)N2C)CCc1cccnc1 [Example 50, 1,3,3,5-tetramethyl-7-{3-[(2-methylbenzyl)-(2-pyridin-3-ylethyl)amino]propoxy}-1,5-dihydrobenzo[b][1,4]diazepine-2,4-dione dihydrochloride] | 0.25
CN1C(=O)C(C)(C)C(=O)N(C)c2cc(OCCCN(CCc3cccnc3)Cc3ccnc4ccccc34)ccc21 [Example 51, 1,3,3,5-tetramethyl-7-{3-[(2-pyridin-3-ylethyl)-(quinolin-4-ylmethyl)amino]propoxy}-1,5-dihydrobenzo[b][1,4]diazepine-2,4-dione trihydrochloride] | 0.21
CCN1C(=O)C(C)(C)C(=O)N(C)c2cc(OCCCN(CCc3cccnc3)Cc3ccncc3C)ccc21 [Example 54, 1-ethyl-3,3,5-trimethyl-7-{3-[(3-methylpyridin-4-ylmethyl)-(2-pyridin-3-ylethyl)amino]propoxy}-1,5-dihydrobenzo[b][1,4]diazepine-2,4-dione trihydrochloride] | 0.28
CCN1C(=O)C(C)(C)C(=O)N(C)c2cc(OCCCN(CCn3c(=O)ccc4ccccc43)Cc3ccncc3)ccc21 [Example 63, 1-ethyl-3,3,5-trimethyl-7-(3-{[2-(2-oxo-2H-quinolin-1-yl)ethyl]pyridin-4-ylmethylamino}propoxy)-1,5-dihydrobenzo[b][1,4]diazepine-2,4-dione] | 0.24
CCN1C(=O)C(C)(C)C(=O)N(C)c2cc(OCCCN(CCn3ccc4ccsc4c3=O)Cc3ccncc3)ccc21 [Example 68, 1-ethyl-3,3,5-trimethyl-7-(3-{[2-(7-oxo-7H-thieno[2,3-c]pyridin-6-yl)ethyl]pyridin-4-ylmethylamino}propoxy)-1,5-dihydrobenzo[b][1,4]diazepine-2,4-dione] | 0.38
CCN1C(=O)C(C)(C)C(=O)N(C)c2cc(OCCCN(CCn3ccc4ccccc4c3=O)Cc3ccc(C#N)cc3)ccc21 [Example 85] | 0.15
CCN1C(=O)C(C)(C)C(=O)N(C)c2cc(OCCCN(CCn3ccc4ccccc4c3=O)Cc3ccsc3)ccc21 [Example 125] | 0.19
CCN1C(=O)C(C)(C)C(=O)N(C)c2cc(OCCCN(CCn3ccc4ccccc4c3=O)Cc3ccco3)ccc21 [Example 132] | 0.27
CCN1C(=O)C(C)(C)C(=O)N(C)c2cc(OCCCN(CCc3cccnc3)Cc3ccccc3)ccc21 [Example 200] | 0.29
CCN1C(=O)C(C)(C)C(=O)N(C)c2cc(OCCCN(CCc3cccnc3)Cc3cccc(C#N)c3)ccc21 [Example 229] | 0.16
CCN1C(=O)C(C)(C)C(=O)N(C)c2cc(OCCCN(CCc3cccnc3)Cc3ccccc3-c3cccnc3)ccc21 [Example 242] | 0.18
CCN1C(=O)C(C)(C)C(=O)N(C)c2cc(OCCCN(CCn3ccc4ccoc4c3=O)Cc3ccc(C#N)cc3)ccc21 [Example 380] | 0.16
CCN1C(=O)C(C)(C)C(=O)N(C)c2cc(OCCCN(CCn3ccc4ccoc4c3=O)Cc3ccc(C(F)(F)F)cc3)ccc21 [Example 395] | 0.19
CCN1C(=O)C(C)(C)C(=O)N(C)c2cc(OCCCN(CCn3ccc4ccoc4c3=O)Cc3ccccc3C)ccc21 [Example 398] | 0.22
CCN1C(=O)C(C)(C)C(=O)N(C)c2cc(OCCCN(CCn3ccc4ccoc4c3=O)Cc3cccs3)ccc21 [Example 417] | 0.18
CCN1C(=O)C(C)(C)C(=O)N(C)c2cc(OCCCN(CCn3ccc4oc(C)cc4c3=O)Cc3ccncc3)ccc21 [Example 464, 1-ethyl-3,3,5-trimethyl-7-(3-{[2-(2-methyl-4-oxo-4H-furo[3,2-c]pyridin-5-yl)ethyl]pyridin-4-ylmethylamino}propoxy)-1,5-dihydrobenzo[b][1,4]diazepine-2,4-dione dihydrochloride] | 0.44
CCN1C(=O)C(C)(C)C(=O)N(C)c2cc(OCCCN(CCn3ccc4occc4c3=O)Cc3cccnc3)ccc21 [Example 551, 1-ethyl-3,3,5-trimethyl-7-(3-{[2-(4-oxo-4H-furo[3,2-c]pyridin-5-yl)ethyl]pyridin-3-ylmethylamino}-propoxy)-1,5-dihydrobenzo[b][1,4]diazepine-2,4-dione] | 0.39
CCN1C(=O)C(C)(C)C(=O)N(C)c2cc(OCCCN(CCn3ccc4sccc4c3=O)Cc3cccnc3)ccc21 [Example 568, 1-ethyl-3,3,5-trimethyl-7-(3-{[2-(4-oxo-4H-thieno[3,2-c]pyridin-5-yl)ethyl]pyridin-3-ylmethylamino}-propoxy)-1,5-dihydrobenzo[b][1,4]diazepine-2,4-dione] | 0.42
CCN1C(=O)C(C)(C)C(=O)N(C)c2cc(OCCCN(CCn3ccc4oc(C)cc4c3=O)Cc3cnccc3C)ccc21 [Example 573, 1-ethyl-3,3,5-trimethyl-7-{3-[[2-(2-methyl-4-oxo-4H-furo[3,2-c]pyridin-5-yl)ethyl]-(4-methylpyridin-3-ylmethyl)amino]propoxy}-1,5-dihydrobenzo[b][1,4]diazepine-2,4-dione] | 0.33
